Key:
[1] = molecular target: T1, human RAD54 (Homo sapiens, UniProt Q92698); assay: biochemical; details: read-out: % inh.
T1 sequence (Q92698 1-747): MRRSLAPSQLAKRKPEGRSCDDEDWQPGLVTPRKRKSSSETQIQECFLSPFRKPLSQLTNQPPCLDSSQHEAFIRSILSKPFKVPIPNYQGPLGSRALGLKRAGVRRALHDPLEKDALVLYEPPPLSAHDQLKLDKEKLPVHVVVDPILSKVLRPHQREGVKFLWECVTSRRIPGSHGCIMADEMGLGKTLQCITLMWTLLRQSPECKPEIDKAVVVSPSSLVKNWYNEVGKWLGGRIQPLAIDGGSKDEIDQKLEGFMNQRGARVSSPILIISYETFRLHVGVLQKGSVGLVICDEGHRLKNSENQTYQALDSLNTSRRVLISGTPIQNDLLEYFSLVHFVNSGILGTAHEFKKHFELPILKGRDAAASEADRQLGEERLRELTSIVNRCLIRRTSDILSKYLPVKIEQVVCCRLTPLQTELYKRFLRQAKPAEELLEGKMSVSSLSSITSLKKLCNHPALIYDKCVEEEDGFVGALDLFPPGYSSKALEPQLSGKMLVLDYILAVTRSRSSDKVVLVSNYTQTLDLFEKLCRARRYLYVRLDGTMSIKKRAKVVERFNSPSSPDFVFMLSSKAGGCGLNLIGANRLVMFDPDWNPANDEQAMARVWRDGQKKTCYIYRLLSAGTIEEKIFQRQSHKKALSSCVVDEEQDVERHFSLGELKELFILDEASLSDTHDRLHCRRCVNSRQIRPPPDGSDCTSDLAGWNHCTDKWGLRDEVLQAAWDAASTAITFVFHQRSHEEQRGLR

[2] = molecular target: T2, H. sapiens SMARCAL1 (Homo sapiens, UniProt Q9NZC9); assay: malachite green phosphate ATPase assay; assay type: biochemical
T2 sequence (Q9NZC9 2-954): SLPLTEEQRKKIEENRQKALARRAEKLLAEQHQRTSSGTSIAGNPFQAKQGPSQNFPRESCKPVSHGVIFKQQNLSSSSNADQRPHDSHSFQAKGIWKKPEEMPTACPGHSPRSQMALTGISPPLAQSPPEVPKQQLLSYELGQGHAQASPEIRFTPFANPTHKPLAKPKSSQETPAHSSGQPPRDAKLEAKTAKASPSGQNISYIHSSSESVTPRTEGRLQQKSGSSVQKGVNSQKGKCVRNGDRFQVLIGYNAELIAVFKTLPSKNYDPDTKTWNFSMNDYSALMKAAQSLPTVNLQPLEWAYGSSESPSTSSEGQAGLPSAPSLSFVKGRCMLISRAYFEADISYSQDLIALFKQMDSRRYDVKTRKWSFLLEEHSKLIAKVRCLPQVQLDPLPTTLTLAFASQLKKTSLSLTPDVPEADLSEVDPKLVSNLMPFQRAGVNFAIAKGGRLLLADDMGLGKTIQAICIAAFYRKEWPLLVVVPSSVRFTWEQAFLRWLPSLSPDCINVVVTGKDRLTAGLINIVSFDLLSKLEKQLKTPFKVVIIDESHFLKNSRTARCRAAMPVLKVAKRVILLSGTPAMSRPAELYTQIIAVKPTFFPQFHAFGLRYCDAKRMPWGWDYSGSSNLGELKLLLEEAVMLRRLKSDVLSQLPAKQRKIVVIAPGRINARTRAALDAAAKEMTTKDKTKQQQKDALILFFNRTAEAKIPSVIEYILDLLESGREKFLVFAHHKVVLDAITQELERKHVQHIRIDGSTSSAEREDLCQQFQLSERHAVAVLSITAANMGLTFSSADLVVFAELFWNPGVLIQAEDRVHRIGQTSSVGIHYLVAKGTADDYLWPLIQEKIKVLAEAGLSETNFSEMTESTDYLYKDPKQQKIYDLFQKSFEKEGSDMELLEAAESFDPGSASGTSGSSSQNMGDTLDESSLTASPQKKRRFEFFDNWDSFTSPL

[3] = molecular target: T3, H. sapiens HLTF (Homo sapiens, UniProt Q14527); assay: malachite green phosphate ATPase assay; assay type: biochemical
T3 sequence (Q14527 1-1009): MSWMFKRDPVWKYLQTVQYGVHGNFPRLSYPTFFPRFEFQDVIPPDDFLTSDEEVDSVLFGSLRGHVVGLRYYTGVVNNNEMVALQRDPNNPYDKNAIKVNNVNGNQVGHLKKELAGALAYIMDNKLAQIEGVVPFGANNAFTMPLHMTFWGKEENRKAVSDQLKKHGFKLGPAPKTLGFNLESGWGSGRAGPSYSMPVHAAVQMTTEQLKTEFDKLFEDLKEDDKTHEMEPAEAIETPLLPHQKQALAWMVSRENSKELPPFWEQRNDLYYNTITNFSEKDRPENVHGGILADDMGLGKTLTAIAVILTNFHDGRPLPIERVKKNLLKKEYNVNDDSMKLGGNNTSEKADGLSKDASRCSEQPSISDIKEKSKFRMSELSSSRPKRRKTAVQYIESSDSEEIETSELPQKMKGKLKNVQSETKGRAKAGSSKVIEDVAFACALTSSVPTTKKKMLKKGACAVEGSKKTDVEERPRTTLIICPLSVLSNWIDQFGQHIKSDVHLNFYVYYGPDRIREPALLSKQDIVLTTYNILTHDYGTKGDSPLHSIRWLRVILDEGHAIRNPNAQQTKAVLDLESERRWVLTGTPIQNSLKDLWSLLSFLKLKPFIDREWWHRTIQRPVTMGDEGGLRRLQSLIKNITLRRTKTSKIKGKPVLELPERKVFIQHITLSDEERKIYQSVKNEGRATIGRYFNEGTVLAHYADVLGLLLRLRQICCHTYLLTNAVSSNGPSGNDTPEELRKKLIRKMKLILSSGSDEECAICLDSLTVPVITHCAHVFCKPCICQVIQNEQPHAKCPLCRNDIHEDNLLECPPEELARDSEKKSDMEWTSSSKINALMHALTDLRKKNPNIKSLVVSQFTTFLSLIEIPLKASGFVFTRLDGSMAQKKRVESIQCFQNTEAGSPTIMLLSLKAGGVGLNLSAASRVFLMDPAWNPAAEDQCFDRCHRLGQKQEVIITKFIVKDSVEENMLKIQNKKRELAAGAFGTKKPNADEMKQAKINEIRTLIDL

[4] = molecular target: H. sapiens VCP/p97 (Homo sapiens, UniProt P55072); assay: malachite green phosphate ATPase assay; assay type: biochemical
Sequence of H. sapiens VCP/p97 (P55072 2-806): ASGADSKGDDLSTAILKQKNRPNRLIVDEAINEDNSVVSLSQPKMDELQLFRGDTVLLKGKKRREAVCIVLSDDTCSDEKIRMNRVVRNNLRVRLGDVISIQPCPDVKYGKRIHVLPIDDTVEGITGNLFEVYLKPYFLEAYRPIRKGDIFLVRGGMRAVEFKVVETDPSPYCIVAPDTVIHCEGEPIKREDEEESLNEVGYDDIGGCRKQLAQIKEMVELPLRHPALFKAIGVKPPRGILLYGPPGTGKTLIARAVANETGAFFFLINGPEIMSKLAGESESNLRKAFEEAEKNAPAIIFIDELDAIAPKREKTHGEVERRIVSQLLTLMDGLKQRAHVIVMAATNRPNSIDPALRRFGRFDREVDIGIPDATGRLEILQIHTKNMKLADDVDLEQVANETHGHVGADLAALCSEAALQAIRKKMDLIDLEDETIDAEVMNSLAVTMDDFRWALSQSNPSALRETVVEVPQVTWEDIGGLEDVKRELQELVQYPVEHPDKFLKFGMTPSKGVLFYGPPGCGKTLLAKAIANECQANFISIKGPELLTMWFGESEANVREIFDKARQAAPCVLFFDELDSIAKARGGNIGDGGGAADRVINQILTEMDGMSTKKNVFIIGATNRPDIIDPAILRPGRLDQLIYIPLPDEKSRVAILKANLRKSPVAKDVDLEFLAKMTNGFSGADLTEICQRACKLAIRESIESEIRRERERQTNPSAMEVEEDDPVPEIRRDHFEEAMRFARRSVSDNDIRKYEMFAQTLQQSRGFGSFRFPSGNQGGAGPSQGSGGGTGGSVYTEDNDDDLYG

[5] = molecular target: T4, E. coli RecA (Escherichia coli, UniProt P0A7G6); assay: malachite green phosphate ATPase assay; assay type: biochemical
T4 sequence (P0A7G6 2-353): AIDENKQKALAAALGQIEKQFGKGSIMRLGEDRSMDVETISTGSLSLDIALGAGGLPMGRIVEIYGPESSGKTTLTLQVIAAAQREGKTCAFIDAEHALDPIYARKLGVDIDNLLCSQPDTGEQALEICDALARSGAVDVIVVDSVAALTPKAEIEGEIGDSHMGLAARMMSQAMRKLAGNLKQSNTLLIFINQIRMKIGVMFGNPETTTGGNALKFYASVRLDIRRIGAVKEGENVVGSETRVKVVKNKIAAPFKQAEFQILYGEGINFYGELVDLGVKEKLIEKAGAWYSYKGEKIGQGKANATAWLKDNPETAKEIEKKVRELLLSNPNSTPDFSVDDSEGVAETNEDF

[6] = molecular target: T5, S. cerevisiae Rdh54/Tid1 (Saccharomyces cerevisiae, UniProt P38086); assay: malachite green phosphate ATPase assay; assay type: biochemical
T5 sequence (P38086 35-958 limits assumed): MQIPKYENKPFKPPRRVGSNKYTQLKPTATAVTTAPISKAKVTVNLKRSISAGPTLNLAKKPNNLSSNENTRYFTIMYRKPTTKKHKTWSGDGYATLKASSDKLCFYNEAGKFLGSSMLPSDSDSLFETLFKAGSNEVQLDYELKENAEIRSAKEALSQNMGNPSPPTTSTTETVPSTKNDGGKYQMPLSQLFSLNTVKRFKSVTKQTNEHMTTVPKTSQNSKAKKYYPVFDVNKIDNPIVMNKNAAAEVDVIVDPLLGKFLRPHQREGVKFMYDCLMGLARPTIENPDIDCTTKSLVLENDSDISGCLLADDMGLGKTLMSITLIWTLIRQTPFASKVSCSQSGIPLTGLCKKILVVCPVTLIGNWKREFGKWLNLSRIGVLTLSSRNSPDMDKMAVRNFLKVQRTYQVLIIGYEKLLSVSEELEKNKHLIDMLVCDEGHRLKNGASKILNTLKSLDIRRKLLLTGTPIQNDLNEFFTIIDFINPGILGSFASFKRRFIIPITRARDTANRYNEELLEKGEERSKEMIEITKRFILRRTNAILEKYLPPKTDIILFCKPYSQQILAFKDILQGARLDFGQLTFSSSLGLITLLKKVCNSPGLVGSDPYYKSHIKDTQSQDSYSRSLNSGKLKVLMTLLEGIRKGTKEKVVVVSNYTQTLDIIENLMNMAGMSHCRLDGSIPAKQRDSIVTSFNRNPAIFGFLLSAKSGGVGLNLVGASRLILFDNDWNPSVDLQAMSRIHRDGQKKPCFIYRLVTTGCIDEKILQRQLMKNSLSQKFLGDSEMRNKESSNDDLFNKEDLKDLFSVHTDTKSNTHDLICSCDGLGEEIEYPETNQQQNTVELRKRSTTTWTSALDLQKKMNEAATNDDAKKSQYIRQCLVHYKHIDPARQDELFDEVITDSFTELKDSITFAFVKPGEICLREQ

[7] = molecular target: T6, S. cerevisiae Rad54 (Saccharomyces cerevisiae, UniProt P32863); assay: malachite green phosphate ATPase assay; assay type: biochemical
T6 sequence (P32863 1-898): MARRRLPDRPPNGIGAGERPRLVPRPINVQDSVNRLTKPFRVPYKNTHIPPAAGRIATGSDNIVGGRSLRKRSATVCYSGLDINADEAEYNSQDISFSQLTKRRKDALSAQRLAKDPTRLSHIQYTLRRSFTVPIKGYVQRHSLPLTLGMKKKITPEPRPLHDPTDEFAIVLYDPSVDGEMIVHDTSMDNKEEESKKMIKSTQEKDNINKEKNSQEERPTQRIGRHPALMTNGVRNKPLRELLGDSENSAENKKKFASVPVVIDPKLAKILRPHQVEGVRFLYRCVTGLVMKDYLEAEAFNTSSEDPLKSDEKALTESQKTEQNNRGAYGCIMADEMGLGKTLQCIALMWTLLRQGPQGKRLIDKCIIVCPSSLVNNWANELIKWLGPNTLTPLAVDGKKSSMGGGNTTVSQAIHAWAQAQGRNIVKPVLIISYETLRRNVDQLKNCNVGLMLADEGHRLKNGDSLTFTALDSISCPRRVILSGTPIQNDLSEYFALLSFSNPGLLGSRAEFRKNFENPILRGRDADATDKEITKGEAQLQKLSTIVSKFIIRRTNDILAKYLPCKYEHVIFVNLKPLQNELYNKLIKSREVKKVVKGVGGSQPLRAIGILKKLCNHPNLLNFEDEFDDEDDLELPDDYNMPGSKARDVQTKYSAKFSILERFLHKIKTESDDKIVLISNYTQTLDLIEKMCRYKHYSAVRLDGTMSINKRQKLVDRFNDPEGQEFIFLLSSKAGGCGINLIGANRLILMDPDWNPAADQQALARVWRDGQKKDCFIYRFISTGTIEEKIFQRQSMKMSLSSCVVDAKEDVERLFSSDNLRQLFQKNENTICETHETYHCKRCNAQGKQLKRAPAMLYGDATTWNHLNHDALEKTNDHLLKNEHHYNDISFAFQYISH

[8] = molecular target: T1, human RAD54; assay: malachite green phosphate ATPase assay; assay type: biochemical
[9] = molecular target: T1, human RAD54; assay: biochemical
[10] = molecular target: T1, human RAD54; assay: biochemical; remark: listed apart in the source

Row | SMILES | inhibition at 10 µM [1] [%] | IC50 [8] [µM] | further results
1 | CCn1nc(-c2ccc(C(F)F)cc2)nc2c(=O)n(C)c(=O)nc1-2 [54i^P-1e] | 79 |  | 
2 | CN(C)CCCNCC(O)Cn1c2ccc(Cl)cc2c2cc(Cl)ccc21 (stereo not drawn) [54i-1] | 68 | 5 ± 1.05 | IC50 [2]: 5.7 ± 0.6 µM; IC50 [3]: 377 ± 195 µM; IC50 [4]: > 500 µM; IC50 [5]: 790 ± 50 nM; IC50 [6]: 43.2 ± 2.9 µM; IC50 [7]: 3.8 ± 1.8 µM
3 | Cc1ccc(C)n1CCN1CCNCC1 [54h^o-1] |  |  | IC50 [9]: > 60 µM
4 | Cc1nc2c(=O)n(C)c(=O)nc-2n(C)n1 [54i^P-1a] | 44 |  | 
5 | Cc1ccc(C)n1-c1ccc(SCC(=O)O)cc1 [54i^P-2b] | 70 |  | 
6 | CCCc1nc2c(=O)n(C)c(=O)nc-2n(C)n1 [54i^P-1b] | 61 |  | 
7 | CCn1nc(-c2ccc(C)cc2)nc2c(=O)n(C)c(=O)nc1-2 [54i^P-1d] | 49 |  | 
8 | Cc1ccc(C)n1-c1ccc(C(=O)O)c(O)c1 [54i^P-2a] | 50 |  | 
9 | CCn1nc(-c2ccccc2C)nc2c(=O)n(C)c(=O)nc1-2 [54i^P-1c] | 70 |  | 
10 | CC1(C)Cc2c(ccc3ccccc23)C(CCN2CCCCC2)=N1 [54i-2] | 18 | 16 ± 3 | 

Now from value to compound, other results behind:

Row | inhibition at 10 µM [1] [%] | IC50 [8] [µM] | SMILES | further results
11 | 36 |  | NC=O [54i^P-4] | 
12 |  | > 130 | CC1(C)c2ccccc2N(CCc2nnn[nH]2)c2ccccc21 [tricyc-1] | IC50 [10]: 129 ± 19.7 µM
13 |  | 7.65 ± 1.06 | CC1(C)c2cc(Br)ccc2N(CCc2nnn[nH]2)c2ccc(Br)cc21 [tricyc-3] | 
14 | 27 |  | CS(=O)(=O)C1=NSC2=NC(=O)C(=Cc3ccc(SCc4ccc(Cl)cc4)o3)C(=N)N21 [54i^P-3] | 
15 |  | 3.07 ± 0.7 | CC1(C)c2cc(Cl)ccc2N(CCc2nnn[nH]2)c2ccc(Cl)cc21 [tricyc-2] | 

From paper doi:10.1101/614586v1 (biorxiv, 2019)
